Laboratory results: patent publication US20130150430A1, “Methods for Impairing the P53/HDM2 Auto-Regulatory Loop in Multiple Myeloma Development Using mIR-192, mIR-194 and mIR-215” (THE OHIO STATE UNIVERSITY, priority 2011, published 2013)

Columns and labels:
Assay type in all cases: cell-based, human
[1] = tested on: p53, MDM2 and p21 in MM1s and NCI-H929 cells; assay: Western blot of p53, MDM2, p21 after miRNA or ASO transfection and Nutlin-3a; details: 72 hr after transfection, 12 hr Nutlin-3a (10 μM); for expression of MDM2 protein: both cell lines; for level of p53 and p21: vs Scr-transfected cells, p<0.001
Description: FIG. 4A: MM1s and NCIH929 cells (pre-miRNA-192, pre-miRNA-194, pre-miRNA-215, Scr sequence-transfected) were harvested at 72 hr after transfection and 12 hr Nutlin-3a treatment (10 μM). Whole cell lysates were subjected to Western blotting using p53, MDM2, p21, and Gapdh antibodies. Densitometric analysis showing the effect of miR-194 (white bars), miR-192 (grey bars), miR-215 (black bars) compared to Scr sequence (green bars) transfected cells of endogenous p53, MDM2 and p21 in MM1s (FIG. 4B) and NCI-H929 (FIG. 4C) Nutlin-3a treated.
FIG. 4D: Immununoblot analysis showing p53, MDM2 and p21 protein expression after 48 hr of miR192, miR-194, miR-215 (pool) and Scr ASOs transfection in MM1s and NCI-H929 cells after 12 hr of treatment with 10 μM Nutlin-3a.
(§1) Samples were extracted in 15 mM Tris.Cl, pH 7.5/120 mM NaCl/25 mM KCl/2 mM EGTA/0.1 mM DTT/0.5% Triton X-100/[…] leupeptin/0.5 mM PMSF. Total protein (35 μg) from each sample was separated on a 4-20% Tris-HCl-Criterion precast gel Bio-Rad (cat#345-0032, Hercules, Calif.) and transferred to a poly(vinylidene difluoride) filter (Millipore). The filter was blocked in 5% nonfat dry milk, incubated with the specific antibody, washed, and probed with secondary antibody IgG conjugated to horseradish peroxidase (Santa Cruz Biotechnology), and developed with enhanced chemiluminescence (Amersham Pharmacia). Immunoblot analyses were performed using the following antibodies: p53 (sc-53394, Santa Cruz Biotechnology), MDM2 (sc-965, Santa Cruz Biotechnology), phospho-MDM2 (Cat#3521, Cell Signaling), c-MYC (cs-40, Santa Cruz Biotechnology), IGF-1 (sc-9013, Santa Cruz Biotechnology), IGF-1R (Cat#3027, Cell Signaling), total-Akt (Cat#9272, Cell signaling), phospho-Akt (Cat#4060, Cell Signaling), total-S6 (Cat#2217, Cell Signaling), phospho-S6 (Cat#2211, Cell Signaling), p21 (sc-817, Santa Cruz Biotechnology), α-PUMA (Cat#4976, Cell Signaling), GAPDH (Cat#2118, Cell Signaling). Filters were reprobed with enzyme-conjugated antibodies to GFP and β-actin (Santa Cruz Biotechnology).
MM cells (from MM subjects or from cell lines) non-transfected or transfected with pre- or ASOs miR-192, miR-215, miR-194 and Scr sequence as described above, were treated with MDM2 inhibitor (Nutlin3a and MI-219). Fresh CD138+ primary PCs isolated from new diagnosed MM subjects as previously described were maintained in culture for 24 hr and then treated for 24 hr with 10 μM Nutlin-3a (Cayman Chemical Company) or vehicle (DMSO). For transfected cells at 24 hrs after transfection MM cells were treated with 10 μM Nutlin-3a (Cayman Chemical Company) or DMSO vehicle only at different time points. […]

[2] = tested on: p53, MDM2, p21 and Puma in MM1s cells; assay: Western blot and densitometry in miRNA-transfected cells treated with MI-219; details: for p53 protein in cells not treated with MI-219: forced miRNA expression, untreated MM1s cells, p<0.05; for p53 re-expression with p21 and Puma up-regulation: miRNA-transfected MM1s cells, 24 hr of 2.5 μM MI-219
Description: FIG. 5A: Effects of miR-192, miR-194 and miR-215 on endogenous p53, p21 and MDM2 levels (Western blots) in MM1s cells treated with MI-219 at different concentrations.
FIG. 5B: Densitometric analysis only for p53 in untreated cells and for p53 and MDM2 protein levels in 2.5, 5 and 10 μM MI-219-treated cells. All experiments were performed in triplicate ±SD.
as §1
MM cells (from MM subjects or from cell lines) non-transfected or transfected with pre- or ASOs miR-192, miR-215, miR-194 and Scr sequence as described above, were treated with MDM2 inhibitor (Nutlin3a and MI-219). Fresh CD138+ primary PCs isolated from new diagnosed MM subjects as previously described were maintained in culture for 24 hr and then treated for 24 hr with 10 μM Nutlin-3a (Cayman Chemical Company) or vehicle (DMSO). For transfected cells at 24 hrs after transfection MM cells were treated with 10 μM Nutlin-3a (Cayman Chemical Company) or DMSO vehicle only at different time points. MMIS cells were also treated with MI-219 solution (10% PEG400/3% Cremophor EL/87% 1×PBS) or only vehicle (10% PEG400/3% Cremophor EL/87% 1×PBS) at different concentration (2.5, 5 and 10 μM) for 24 hr and collected for RNA and protein extractions.

MM1s cells = assay: Caspase-3 activation assay with MI-219 in miRNA-transfected cells; details: MI-219 in presence of the miRNA; p<0.001
Description: FIG. 5C: Apoptotic effect at different concentrations and time points for each miRNA transfected cells was assessed by caspase-3 activation assay.
Nocodazole was (Sigma-Aldrich) was dissolved in DMSO as a stock solution of 10 mg/ml for cell cycle arrest in G2/M phase. Cells were first arrested and synchronized in G2/M phase by growth in 80 nM nocodazole for 16 hr. Cells were then washed and fresh medium added. After 6 hr, cell cycle analysis was performed by propidium iodide staining. Corresponding amounts of DMSO alone were added in control experiments. In experiments involving transfection and MI-219 treatment, the cells were first transfected, incubated for 24 hr, and then treated with the chemotherapeutic drug for 24 hr. For DNA content analysis, cells were fixed in methanol at −20° C., washed again, rehydrated, re-suspended in PBS containing 50 μg/ml propidium iodide (PI) and 50 μg/ml RNase A, and analyzed by flow cytometry (Becton Dickinson). For detection of caspase 3 activity, KMS28BM and MM1s cells were cultured in 96-well plates and treated with Nutlin-3a. After the treatment the cells were analyzed using Caspase-Glo 3 Assay kit (Promega) according to the manufacturer's instructions. Continuous variables were expressed as mean values ± standard deviation (s.d.).

[3] = tested on: NCI-H929 and RPMI-8226 IGF-1 treated cells; assay: Adhesion assay on fibronectin in response to IGF-1; details: ectopic expression, vs Scr control
Description: FIG. 21A, FIG. 21B: MM1s and RPMI-8226 cells (pre-miRNA-192, -194, -215, Scr sequence-transfected) at 48 hr after transfection were harvested, treated with calcein and incubated with IGF-1 (50 ng/ml) and their ability to adhere to fibronectin plates was assessed by fluorescence assay. MM1s (FIG. 21A) and RPMI-8226 (FIG. 21B) with ectopic re-expression of miR-192, 215 and also miR-194 lost their ability to respond to IGF-1 treatment compare to Scr sequence.
Before adhesion, MM cell lines were starved overnight in RPMI 1640/0.5% BSA, without loss of viability. Cells (5×10^6/ml) were labeled with calcein-a.m. (Molecular Probes, Eugene, Oreg.) for 30 min at 37° C., washed, and resuspended in adhesion medium (RPMI 1640/10% FBS). Cells were stimulated with or without IGF-1 at 0-200 ng/ml for 20 min and added in triplicate to Fibronectin-coated 48 well plates (BD Biosciences #354506, Bedford, Mass.) at 37° C. for 30 min, and unbound cells were removed by four washes with RPMI1640. The absorbance of each well was measured using 492/520 nm filter set with a fluorescence plate reader (Wallac VICTOR2; Perkin-Elmer, Boston, Mass.).

Substance | expression of MDM2 protein [1] | level of p53 and p21 [1] | p53 protein in cells not treated with MI-219 [2] | p53 re-expression with p21 and Puma up-regulation [2] | caspase-3 activation induced by MI-219 (MM1s cells) | cell adhesion [3]
miR-192: microRNA, p53-activated, down-regulated in MM; transfected as miRNA precursor (Ambion) or lentivector; SEQ ID NO:56 (CUGACCUAUGAAUUGACAGCC; listed as RNA, chemistry not given here; listed as Homo sapiens) | dramatically decreased | significantly increased | p53 became detectable | Dramatic p53 re-expression | higher caspase-3 activation | significant decrease
miR-215: microRNA, p53-activated, down-regulated in MM; transfected as miRNA precursor (Ambion) or lentivector; SEQ ID NO:58 (AUGACCUAUGAAUUGACAGAC; listed as RNA, chemistry not given here; listed as Homo sapiens) | dramatically decreased | significantly increased | p53 became detectable | Dramatic p53 re-expression | higher caspase-3 activation | significant decrease
